This is an account of results in patent publication US20230192705A1, “SHP2 INHIBITORS, COMPOSITIONS AND USES THEREOF” (Betta Pharmaceuticals Co., Ltd, priority 2020, published 2023).

For orientation: pIC50 means the IC50 on a negative log10 scale, so that one unit is a factor of ten.

pIC50: −log10 of the molar value. Like-named read-outs stand apart in the source and are kept apart here.

In one series the test system is leukemia MV-4-11 cell. As to the kind of experiment: Cell proliferation assay (CellTiter-Glo), MV-4-11. The following applies: Homo sapiens, MV4-11, MV-4-11, 120 hrs, CTG, read-out: Compound on MV-4-11 cell IC50. The class given is cell-based. As to the method: (§1) The effects of the compounds on the proliferation of leukemia MV-4-11 cell and lung cancer NCI-H358 cell were evaluated by in vitro cell test. The assay used in this study was the CELL TITER-GLO (CTG) luminescence assay, which can detect the number of living cells by quantitative determination of ATP. Because ATP is involved in a variety of enzymatic reactions in vivo and is an indicator of the metabolism of living cells, its content can directly reflects the number and state of cells. During the experiment, Celltiter-Glo™ reagent was added to the cell culture medium to measure the luminescence value. The luminescence value was proportional to the amount of ATP, which in turn was positively correlated with the number of living cells. Therefore, ATP content can be used to detect cell viability.
A bottle of MV-4-11 cells in logarithmic growth phase was taken, the cells were collected, centrifuged, resuspend, counted, and then inoculated into 96-well Microplate (Corning #3917), with 4000 cells inoculated in each well. The plates were placed in an incubator at 37° C. and 5% CO2 for 24 hrs culture, and the compounds of the invention were added for conducting.
(§2) An appropriate amount of the compound of the invention was taken for cell treatment, and the final concentration of the compound from high to low was 1000 nM, 333.3 nM, 111.1 nM, 37.04 nM, 12.35 nM, 4.115 nM, 1.372 nm, 0.4572 nM, 0.1524 nM, 0 nM, respectively. The orifice plate was cultured in an incubator at 37° C. and 5% CO2. Only adding medium without adding cell hole was set as blank group. Compound concentration of 0 nM group was zero control group.
After cultured for 120 hrs, MV-4-11 cells were added with 50 μL CellTiter-Glo® Luminescent cell viability assay solution in each well, gently shaken for 2 mins, and incubated at room temperature for 10 mins. The detection values of each well were read on the multi-functional microplate reader.
(§3) The inhibition rate is calculated according to the luminous value reading,
(§4) Inhibition rate %=(1−(administration group value−blank group value)/(control group value−blank group value)*100
(§5) The log (inhibitor) vs. response variable slope of GraphPad Prism was used to fit the dose-response curve and calculate the IC50 of compounds inhibiting cell proliferation.
For orientation: ATP-based viability assays read luminescence as a measure of living cells.

A short description of series [1]: In vitro metabolic stability in human liver microsome. The class given is in vitro ADME. The settings on record: human liver microsomes. As to the method: (§6) 1900 mg MgCl2 was dissolved into a final volume of 400 mL ultra-pure water.
(§7) 17.42 g K2HPO4 and 13.65 g KH2PO4 were dissolved into a final volume of 1000 mL ultra-pure water, respectively. K2HPO4 and KH2PO4 were mixed to prepare 100 mM potassium phosphate (PBS) buffer. The pH value of the final solution was adjusted to pH 7.30±0.10.
(§8) Cold ACN (including 10 ng/mL Labetalol and 10 ng/mL Glibenclamid) was stored at 4° C.
(§9) Working Solution Preparation:
(§10) Verapamil (positive control) and test compound stock solution were diluted into a concentration of 50 μM and 200 μM respectively, using MeOH/ACN/H2O solution (1:1:2, v/v/v).
(§11) 1) 40 μL MgCl2 and 306 μL PBS were added to 96 plate wells (blank, compound wells, compounds without NADPH wells)
(§12) 2) 4 μL compound working solution was added to above wells (blank: 4 μL PBS buffer) (Note: the volume of DMSO in final incubation system ≤0.5%)
(§13) 3) 10 μL microsomes (20 mg/mL) was added in each well. The mixture was warmed up for 10 minutes at 37.0° C.
(§14) 4) 40 μL 10 mM NADPH working solution was added to start reaction. The total volume was 400 μL.
(§15) 5) Aliquots of 50 μL samples were taken from the reaction solution at 0, 5, 15, 45 min. The reaction solutions were stopped by the addition of 400 μL stop solution.
(§16) 6) The sampling plates were shaked for approx. 5 min.
(§17) 7) Samples were centrifuged at 3200 rcf for 10 min. then transferred 50 μL to a new plate dilute with 200 μL H2O for LC/MS/MS analysis.
(§18) Use equation of first order kinetics to calculate t1/2 and CL: […]
(§19) Where k represents elimination constant, which is calculated from a log linear plot of % Remaining versus time. t1/2 represents the half-life. Cprotein is the concentration of liver microsomes.
In general terms: Microsomes from liver hold many membrane-bound enzymes, among them those of drug oxidation.

Series [2] can be described thus: In vitro metabolic stability in rat liver microsome. The class given is in vitro ADME. The following applies: rat liver microsomes. On the procedure:
as §6, §7, §8, §9, §10, §11, §12, §13, §14, §15, §16, §17, §18, §19

Series [3] deals with lung cancer NCI-H358 cell. As to the kind of experiment: Cell proliferation assay (CellTiter-Glo), NCI-H358. The class given is cell-based. The following applies: Homo sapiens, NCI-H358, 96 hrs, CTG, read-out: Compound on NCI-H358 cell IC50. As to the method: as §1
A bottle of NCI-H358 cells in logarithmic growth phase was taken, the cells were digested and resuspend, counted, and then the cell density was adjusted. After that, the cells were inoculated into a 96-well Ultra-Low Attachment Microplate (Corning #3474), 2000 cells were inoculated in each well, and the well plate was placed in an incubator at 37° C. and 5% CO2, and the compounds of the invention were added for conducting.
as §2
NCI-H358 cells were cultured for 96 hrs, then 50 μL CellTiter-Glo® Luminescent cell viability assay solution was added to each well, and the cells were gently shaken for 2 mins, and incubated at room temperature for 10 mins. The cell reaction system was transferred to 96-well Microplate (Corning #3917). The detection values of each well were read on the multi-functional microplate reader.
as §3, §4, §5

Consider `Cn1c(N2CCC3(CC2)Cc2ccccc2[C@H]3N)nc2[nH]nc(C3(c4ccccc4)CC3)c2c1=O` [Example 1], for which, in the series with leukemia MV-4-11 cell (class symbols), the pIC50 was ≥ 7.70. Besides, the “CLint Human” value in series [1] stood at 95.2 μL/min/mg proteins. In addition, in series [2], the “CLint Rat” value is on record as 34.7 μL/min/mg proteins.

As to `N[C@@H]1c2ccccc2CC12CCN(c1nc3[nH]nc(C4(c5cccc(F)c5)CC4)c3c(=O)[nH]1)CC2` [Example 6, (S)-6-(1-amino-1,3-dihydrospiro[indene-2,4′-piperidin]-1′-yl)-3-(1-(3-fluorophenyl)cyclopropyl)-1,5-dihydro-4H-pyrazolo[3,4-d]pyrimidin-4-one], the pIC50 was 8.19 with leukemia MV-4-11 cell (numeric values) and 8.07 in series [3] (numeric values). In addition, in series [1], the “CLint Human” value is on record as 19.5 μL/min/mg proteins. The “CLint Rat” value in series [2] is given as 11.2 μL/min/mg proteins.

Take `N[C@@H]1c2ccccc2CC12CCN(c1nc3[nH]nc(C4(c5cccc(C(F)(F)F)c5)CC4)c3c(=O)[nH]1)CC2` [Example 8, (S)-6-(1-amino-1,3-dihydrospiro[indene-2,4′-piperidin]-1′-yl)-3-(1-(3-(trifluoromethyl)plienyl)cyclo-propyl)-1,5-dihydro-4H-pyrazolo[3,4-d]pyrimidin-4-one]: the pIC50 in the series with leukemia MV-4-11 cell (numeric values) was 8.21; in series [3] (numeric values) it was 8.77. In series [1], the “CLint Human” value was found to be 9.2 μL/min/mg proteins. Moreover, in series [2], the “CLint Rat” value worked out at 11.6 μL/min/mg proteins.

For the compound `N[C@@H]1c2ccccc2CC12CCN(c1nc3[nH]nc(C4(c5ccccc5)CC4(F)F)c3c(=O)[nH]1)CC2` (stereo partly drawn) [Example 9, 6-((S)-1-amino-1,3-dihydrospiro[indene-2,4′-piperidin]-1′-yl)-3-(2,2-difluoro-1-phenylcyclopropyl)-1,5-dihydro-4H-pyrazolo[3,4-d]pyrimidin-4-one], the pIC50 (with leukemia MV-4-11 cell (class symbols); in series [3] (class symbols)) was ≥ 7.70 throughout. In addition, the “CLint Human” value in series [1] turned out to be 16.9 μL/min/mg proteins. Moreover, the “CLint Rat” value in series [2] was found to be 10.5 μL/min/mg proteins.

Turning to `N[C@@H]1c2ccccc2CC12CCN(c1nc3[nH]nc(C4(c5ccc(F)cc5)CC4)c3c(=O)[nH]1)CC2` [Example 11, (S)-6-(1-amino-1,3-dihydrospiro[indene-2,4′-piperidin]-1′-yl)-3-(1-(4-fluorophenyl)cyclopropyl)-1,5-dihydro-4H-pyrazolo[3,4-d]pyrimidin-4-one], the pIC50 with leukemia MV-4-11 cell (numeric values) was 8.92; in series [3] (numeric values), 8.68. In addition, in series [1], the “CLint Human” value amounted to 8.6 μL/min/mg proteins. In series [2], the “CLint Rat” value worked out at 6.6 μL/min/mg proteins.

Regarding `N[C@@H]1c2ccccc2CC12CCN(c1nc3[nH]nc(C4(c5ccc6c(c5)OC(F)(F)O6)CC4)c3c(=O)[nH]1)CC2` [Example 13, (S)-6-(1-amino-1,3-dihydrospiro[indene-2,4′-piperidin]-1′-yl)-3-(1-(2,2-difluorobenzo[d][1,3]dioxol-5-yl)cyclopropyl)-1,5-dihydro-4H-pyrazolo[3,4-d]pyrimidin-4-one], the pIC50 (with leukemia MV-4-11 cell (class symbols); in series [3] (class symbols)) was ≥ 7.70 each time. In addition, the “CLint Human” value in series [1] came to 9.8 μL/min/mg proteins. Also, the “CLint Rat” value in series [2] came to 14.3 μL/min/mg proteins.

Regarding `N[C@@H]1c2ccccc2CC12CCN(c1nc3[nH]nc(C4(c5ccc(Cl)c(Cl)c5)CC4)c3c(=O)[nH]1)CC2` [Example 21, (S)-6-(1-amino-1,3-dihydrospiro[indene-2,4′-piperidin]-1′-yl)-3-(1-(3,4-dichlorophenyl)cyclopropyl)-1,5-dihydro-4H-pyrazolo[3,4-d]pyrimidin-4-one], the negative-log IC50 (pIC50) (with leukemia MV-4-11 cell (class symbols); in series [3] (class symbols)) was ≥ 7.70 in each case. Also, in series [1], the “CLint Human” value worked out at 10.4 μL/min/mg proteins. Moreover, the “CLint Rat” value in series [2] was found to be 3.8 μL/min/mg proteins.

Take `N[C@@H]1c2ccccc2CC12CCN(c1nc3[nH]nc(C4(c5cccs5)CC4)c3c(=O)[nH]1)CC2` [Example 24, (S)-6-(1-amino-1,3-dihydrospiro[indene-2,4′-piperidin]-1′-yl)-3-(1-(thiophen-2-yl)cyclopropyl)-1,5-dihydro-4H-pyrazolo[3,4-d]pyrimidin-4-one]: the negative logarithm of the IC50 (pIC50) (in the series on leukemia MV-4-11 cell (class symbols); in series [3] (class symbols)) was ≥ 7.70 throughout.

On to `N[C@@H]1c2ccccc2CC12CCN(c1nc3[nH]nc(C4(c5ccccc5)CC4)c3c(=O)[nH]1)CC2` [Example 33], for which the pIC50 (in the series on leukemia MV-4-11 cell (class symbols); in series [3] (class symbols)) was ≥ 7.70 throughout. In addition, in series [1], the “CLint Human” value stood at 10.6 μL/min/mg proteins. In addition, the “CLint Rat” value in series [2] was 17.4 μL/min/mg proteins.

With `N[C@@H]1c2ccccc2CC12CCN(c1nc3[nH]nc(C4(c5ccccc5)COC4)c3c(=O)[nH]1)CC2` [Example 96, (S)-6-(1-amino-1,3-dihydrospiro[indene-2,4′-piperidin]-1′-yl)-3-(3-phenyloxetan-3-yl)-1,5-dihydro-4H-pyrazolo[3,4-d]pyrimidin-4-one], the pIC50 in the series with leukemia MV-4-11 cell (class symbols) was 7.22 to 7.70; in series [3] (class symbols) it was < 7.22.

In the case of `Nc1ccc(C2(c3n[nH]c4nc(N5CCC6(CC5)Cc5ccccc5[C@H]6N)[nH]c(=O)c34)CC2)cc1` [Example 230, (S)-6-(1-amino-1,3-dihydrospiro[indene-2,4′-piperidin]-1′-yl)-3-(1-(4-aminophenyl)cyclopropyl)-1,5-dihydro-4H-pyrazolo[3,4-d]pyrimidin-4-one], the “CLint Human” value in series [1] is on record as 9.2 μL/min/mg proteins. The “CLint Rat” value in series [2] is 3.2 μL/min/mg proteins.

Take `N[C@@H]1c2ccccc2CC12CCN(c1nc3[nH]nc(C4(c5ccc(O)cc5)CC4)c3c(=O)[nH]1)CC2` [Example 234, (S)-6-(1-amino-1,3-dihydrospiro[indene-2,4′-piperidin]-1′-yl)-3-(1-(4-hydroxyphenyl)cyclopropyl)-1,5-dihydro-4H-pyrazolo[3,4-d]pyrimidin-4-one]: the “CLint Human” value in series [1] worked out at 10.4 μL/min/mg proteins. Moreover, in series [2], the “CLint Rat” value was 6.6 μL/min/mg proteins.

On to `N#Cc1ccc(C2(c3n[nH]c4nc(N5CCC6(CC5)Cc5ccccc5[C@H]6N)[nH]c(=O)c34)CC2)cc1` [Example 237, (S)-4-(1-(6-(1-amino-1,3-dihydrospiro[indene-2,4′-piperidin]-1′-yl)-4-oxo-4,5-dihydro-1H-pyrazolo[3,4-d]pyrimidin-3-yl)cyclopropyl)benzonitrile], for which the pIC50 (with leukemia MV-4-11 cell (class symbols); in series [3] (class symbols)) was ≥ 7.70 in each case.
